“And” between values parts separate entries of the source, which are not always exact repeats. Equal entries are not always repeated.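 Test compounds were applied to cells in 96-well plates for 48 hours at 5 doses. GI50 is the concentration that inhibits growth by half. TGI is the concentration that stops growth completely.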
What was measured:
Test in all cases: NCI-60 cell line screen, 48 h
MDA-MB-231 breast = test system: MDA-MB-231 breast
SNB-75 CNS = test system: SNB-75 CNS
KM12 colon = test system: KM12 colon
NCI-H226 lung = test system: NCI-H226 lung
HS 578T breast = test system: HS 578T breast
MDA-MB-435 = test system: MDA-MB-435
EKVX NSCLC = test system: EKVX NSCLC
A549 NSCLC = test system: A549 NSCLC
NCI-H460 lung = test system: NCI-H460 lung
SF-268 CNS = test system: SF-268 CNS

Compound	TGI (MDA-MB-231 breast)	TGI (SNB-75 CNS)	TGI (KM12 colon) [µM]	TGI (NCI-H226 lung)	TGI (HS 578T breast) [µM]	TGI (MDA-MB-435)	TGI (EKVX NSCLC)	TGI (A549 NSCLC) [µM]	TGI (NCI-H460 lung) [µM]	TGI (SF-268 CNS) [µM]	GI50 (MDA-MB-231 breast) [µM]	GI50 (KM12 colon) [µM]	GI50 (NCI-H226 lung) [µM]	GI50 (HS 578T breast)	GI50 (MDA-MB-435)	GI50 (EKVX NSCLC) [µM]	GI50 (A549 NSCLC)	GI50 (NCI-H460 lung)	GI50 (SF-268 CNS)	GI50 (SNB-75 CNS) [µM]
O=P(O)(CCP(=O)(O)c1ccccc1)c1ccccc1	> 100 µM	> 100 µM	> 100	> 100 µM	> 100	> 100 µM	> 100 µM	> 100	> 100	> 100	–	–	–	–	–	–	–	–	–	–
O=C(Oc1ccc(Cl)cc1Cl)c1ccccc1Nc1ccnc(C(F)(F)F)c1	7.92 µM	–	21.1	18.6 µM	73.9	8.1 µM	40.9 µM	33.1	33.8	13.6	2.24	3.69	3.46	24.9 µM	2.91 µM	18.5	11.1 µM	4.26 µM	3.11 µM	–
O=[N+]([O-])c1ccc(C(c2c[nH]c3ccccc23)c2c[nH]c3ccccc23)cc1	29.3 µM	18.5 µM	28.1	32.1 µM	51.1	32.3 µM	48.2 µM	41.4	12.6	22.5	–	–	–	–	–	–	–	–	–	–
COc1cc(C2CC(c3ccc(C)cc3)=NN2C=O)ccc1Oc1ccnc2cc(Cl)ccc12 (stereo not drawn)	43.8 µM	6.92 µM	> 50	> 50 µM	> 50	> 50 µM	> 50 µM	> 50	> 50	> 50	4.23	> 50	1.81	1.82 µM	> 50 µM	7.75	> 50 µM	> 50 µM	11.3 µM	1.13
O=C(CN1CCN(c2ncccn2)CC1)Nc1ccc(Cl)cc1C(=O)c1ccccc1Cl	> 100 µM	> 100 µM	> 100	> 100 µM	> 100	> 100 µM	> 100 µM	> 100	> 100	> 100	> 100	69	> 100	83.6 µM	> 100 µM	> 100	47.6 µM	> 100 µM	> 100 µM	54.9
COc1ccc2nc(N/N=C(\C)c3ccccn3)cc(C)c2c1	1.87 µM	7.49 µM	1.6	1 µM	9.39	1.69 µM	0.971 µM	3.24	1.13	1.46	0.232	0.321	0.222	1.76 µM	0.408 µM	0.134	0.315 µM	0.118 µM	0.228 µM	1.82
O=C1NCc2ccc3c(-c4cccc(Cl)c4)c[nH]c3c21	> 25.7 µM	–	> 29.7	> 50 µM	> 50	0.239 µM	> 50 µM	> 50	> 38.2	> 50	0.838	0.196	28.9	0.182 µM	0.0604 µM	0.381	0.438 µM	0.201 µM	0.5 µM	–
N#Cc1c(-c2nc3ccccc3s2)c(=O)oc2cc(O)ccc12	82.5 µM	> 100 µM	73	> 100 µM	> 100	> 100 µM	> 100 µM	> 100	> 100	> 100	–	–	–	–	–	–	–	–	–	–
CC(=O)n1c(COS(C)(=O)=O)nc2ccccc21	> 100 µM	> 100 µM	> 100	> 100 µM	> 100	> 100 µM	> 100 µM	> 100	> 100	> 100	–	–	–	–	–	–	–	–	–	–
CN1CC[C@@H](c2c(O)cc(O)c3c(=O)cc(-c4ccccc4Cl)oc23)[C@@H](O)C1	0.613 µM and 2.86 µM	0.25 µM and 0.0894 µM	26.6	0.301 µM and 0.821 µM	–	0.261 µM and 0.22 µM and 0.342 µM	0.435 µM and 0.947 µM	33.8	–	–	0.168	0.0511	0.0522	0.0675 µM and 0.11 µM and 0.0213 µM	0.0886 µM and 0.0744 µM	0.141	0.0793 µM and 0.161 µM	0.0681 µM and 0.0693 µM	0.0577 µM and 0.0288 µM	0.0975
COc1ccc(-c2nn3ncccc3c2-c2ccnc(Nc3ccc(Cl)c(C(F)(F)F)c3)n2)cc1	> 25 µM	> 25 µM	> 25	> 25 µM	> 25	> 25 µM	> 25 µM	> 25	> 25	> 25	8.56	9.89	10.5	9.15 µM	9.69 µM	7.84	10.8 µM	8.45 µM	11.6 µM	> 13.8
CNC(=O)c1cc(OC2CCC(NC(=O)Nc3ccc(Cl)c(C(F)(F)F)c3)CC2)ccn1 (stereo not drawn)	15.9 µM	38.9 µM	14	25.6 µM	63.1	24.8 µM	58.7 µM	26.6	28.6	52	3.23	0.713	9.99	11.6 µM	4.16 µM	7.46	4.53 µM	6.92 µM	13.7 µM	16
CCN(CC)CCOc1nc2ccc(OC)cc2c2c1-c1ccc(OC)cc1C2=O	4.1 µM	5.4 µM	1.77	3.06 µM	6.93	2.09 µM	2.81 µM	1.59	1.43	2.02	1.54	0.519	0.87	1.48 µM	0.69 µM	0.97	0.387 µM	0.371 µM	0.595 µM	1.36
COc1cccc(C2CC(C)(N3CCCC3)Oc3cc4c(cc32)OCO4)c1O (stereo not drawn)	80.5 µM	53.9 µM	> 100	55.9 µM	57.7	18.4 µM	> 100 µM	> 100	> 82.1	> 92.1	–	–	–	–	–	–	–	–	–	–
